Experimental data taken from patent US20090170917A1, “Acid Mimic Compounds for the Inhibition of Isoprenyl-S-Cysteinyl Methyltransferase” (priority 2007, published 2009).

Assays:
[1] = molecular target: membrane-associated isoprenyl-5-cysteinyl methyltransferase (Homo sapiens, UniProt O60725); details: background statement; cited from earlier work
[2] = test system: dermal inflammation; details: mice, background statement; cited from earlier work
[3] = test system: neutrophil, macrophage, and platelet responses; details: in vitro, background statement; cited from earlier work
[4] = test system: TPA-treated mouse ears (erythema); assay: Mouse ear model of TPA-induced contact inflammation: erythema inhibition (Δa* redness, chroma meter); type: in vivo; details: for erythema inhibition (statement in words): in vivo activity, no dose stated; for % Inhibition Erythema: TPA-treated mouse ear, 24 hours
Text: (§1) G. et al., Anti-inflammatory Drugs, Clin. Pharmacol. Ther. 16, 900-4 (1974); Young et al., Tachyphylaxis in 12-Otetradecanoylphorbolacetate-and Arachidonic Acid-Induced Ear Edema; J. Invest. Dermatol. 80:48-52, (1983); Tramposch et al., In Vivo Models of Inflammation, (Morgan D W, Marshall L A eds), Birkhaüser Verlag: Basel, pp 179-204, 1999; and Gordon et al., Topical N-Acetyl-S-Farnesyl-L-Cysteine Inhibits Mouse Skin Inflammation, and Unlike Dexamethasone, Its Effects Are Restricted to the Application Site, J. Invest. Dermatol., 128(3):643-54, 2008 March)]. Moreover, the mouse ear model has been used by various groups to identify and compare members of differing classes of anti-inflammatory agents with multiple mechanisms of action (reviewed in Tramposch et al., 1999, supra).
Another well documented biomarker of skin inflammation is skin redness, termed erythema, which is caused by capillary congestion and dilation in response to various chemical and environmental insults (see Denig, N. I. et al., Irritant Contact Dermatitis. Clues to Causes, Clinical Characteristics, and Control, Postgrad Med., May (1998); 103(5):199-200, 207-8, 212-3). […] The percent inhibition of erythema was determined by taking the average Δa* redness value of compound-treated ears and dividing it by the average Δa* value of 12 ears that only received TPA and subtracting that value from 100%. These values were corrected for the Δa* value of non TPA-treated mouse ears of littermate controls. […] Gordon et al., “Topical N-acetyl-5-farnesyl-L-cysteine Inhibits Mouse Skin Inflammation, and Unlike Dexamethasone, its Effects Are Restricted to the Application Site”, J. Invest. Derm., Vol. 128 pp. 643-654 (2008).

[5] = test system: TPA-treated mouse ears (edema); assay: Mouse ear model of TPA-induced contact inflammation: edema inhibition (ear thickness); type: in vivo; details: for edema inhibition (statement in words): in vivo activity, no dose stated; for % Inhibition Edema: TPA-treated mouse ear, 24 hours
Text: as §1
The protocol for inducing in vivo acute contact inflammation on the ears of live mice has been described elsewhere (reviewed in Tramposch, 1999, supra). In brief, mice were sedated and their ears were treated with 1.2 μg/20 uL TPA (i.e., tetradecanoylphorbol-13-acetate). […] After 24 hours, the mice were sacrificed and edema was measured by taking micrometer readings of each ear. The percent inhibition of edema was determined by taking the average ear thickness of compound-treated ears and dividing it by the average thickness of 12 ears that only received TPA and subtracting that value from 100%. These values were corrected for the thickness of normal, non TPA-treated mouse ears of littermate controls. […] ED50 values were calculated as described in Gordon et al., “Topical N-acetyl-5-farnesyl-L-cysteine Inhibits Mouse Skin Inflammation, and Unlike Dexamethasone, its Effects Are Restricted to the Application Site”, J. Invest. Derm., Vol. 128 pp. 643-654 (2008).

[6] = test system: dermal neutrophil infiltration, neutrophil marker myeloperoxidase (MPO); assay: Mouse ear model of TPA-induced contact inflammation: MPO inhibition (dermal neutrophil infiltration); type: in vivo; details: for MPO (myeloperoxidase) inhibition (statement in words): in vivo activity, no dose stated; for % Inhibition MPO: TPA-treated mouse ear, 24 hours
Text: as §1
To assay for inhibition of dermal neutrophil infiltration by S-isoprenyl and S-farnesyl cysteine compounds, a standard method was used (see Bradley et al., 1982, supra; Young et al., 1983, supra; De Young et al, “Edema and Cell Infiltration in the Phorbol Ester-treated Mouse Ear are Temporally Separate and can be Differentially Modulated by Pharmacologic Agents”, Agents Actions, 26(3-4): 335-41 (March 1989); and Rao et al. (1993) Comparative Evaluation of Arachidonic Acid (AA)-and Tetradecanoylphorbol Acetate (TPA)-Induced Dermal Inflammation, Inflammation 17:723-41). Briefly, we homogenized 6 mm biopsy punches taken from both compound-treated ears as well as TPA-treated and non-treated control groups. We quantitated the levels of MPO by a calorimetric reaction that was measured spectrophotometrically. The percent inhibition of neutrophil infiltration by each S-isoprenyl and S-farnesyl cysteine compound was determined by comparing the average MPO levels in the presence and absence of these compounds. […] Gordon et al., “Topical N-acetyl-5-farnesyl-L-cysteine Inhibits Mouse Skin Inflammation, and Unlike Dexamethasone, its Effects Are Restricted to the Application Site”, J. Invest. Derm., Vol. 128 pp. 643-654 (2008).

Sequence of membrane-associated isoprenyl-5-cysteinyl methyltransferase (O60725 whole entry): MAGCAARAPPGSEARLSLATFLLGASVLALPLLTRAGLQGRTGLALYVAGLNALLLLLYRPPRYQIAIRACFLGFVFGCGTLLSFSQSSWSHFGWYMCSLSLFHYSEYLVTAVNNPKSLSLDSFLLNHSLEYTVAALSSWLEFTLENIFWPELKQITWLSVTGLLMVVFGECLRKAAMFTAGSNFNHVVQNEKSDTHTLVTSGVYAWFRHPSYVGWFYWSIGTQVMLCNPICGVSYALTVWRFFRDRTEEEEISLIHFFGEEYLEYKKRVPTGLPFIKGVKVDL

SMILES	inhibition of isoprenyl-S-cysteinyl methyltransferase (mode) [1]	reduction of dermal inflammation [2]	block of neutrophil, macrophage and platelet responses [3]	erythema inhibition (statement in words) [4]	edema inhibition (statement in words) [5]	% Inhibition Edema ([5]; topical dose 0.8 mg/20 μL)	MPO (myeloperoxidase) inhibition (statement in words) [6]	% Inhibition MPO ([6]; topical dose 0.8 mg/20 μL)	% Inhibition Erythema ([4]; topical dose 0.8 mg/20 μL)	% Inhibition Erythema ([4]; topical dose 0.2 mg/20 μL)	% Inhibition Edema ([5]; topical dose 0.2 mg/20 μL)	% Inhibition MPO ([6]; topical dose 0.2 mg/20 μL)
CC(=O)N[C@@H](CSCC=C(C)CCC=C(C)CCC=C(C)C)C(=O)O [AFC, N-acetyl-5-farnesyl-L-cysteine]	competitive inhibitor	effectively reduces dermal inflammation in mice	block some neutrophil, macrophage, and platelet responses in vitro	–	–	–	–	–	–	–	–	–
CC(=O)N[C@@H](CSC/C=C(\C)CC/C=C(\C)CCC=C(C)C)C(=O)NN [Compound A]	–	–	–	erythema inhibition	edema inhibition	— 42.36 ± 1.99%	MPO (myeloperoxidase) inhibition	— 93.53 ± 1.13%	–	–	–	–
CC(=O)N[C@@H](CSC/C=C(\C)CC/C=C(\C)CCC=C(C)C)C(=O)NO [Compound B]	–	–	–	erythema inhibition	edema inhibition	— 33.64 ± 3.03%	MPO (myeloperoxidase) inhibition	— 87.45 ± 1.37%	–	–	–	–
CC(=O)N[C@@H](CSC/C=C(\C)CC/C=C(\C)CCC=C(C)C)C(=O)NNc1ccccc1 [Compound C]	–	–	–	erythema inhibition	edema inhibition	–	MPO (myeloperoxidase) inhibition	–	— 13.41 ± 11.92%	–	–	–
CC(=O)NNC(=O)[C@H](CSC/C=C(\C)CC/C=C(\C)CCC=C(C)C)NC(C)=O [Compound D]	–	–	–	erythema inhibition	–	–	MPO (myeloperoxidase) inhibition	–	–	–	–	–
CNNC(=O)[C@H](CSC/C=C(\C)CC/C=C(\C)CCC=C(C)C)NC(C)=O [Compound E]	–	–	–	erythema inhibition	edema inhibition	— 5.85 ± 7.02%	MPO (myeloperoxidase) inhibition	–	— 7.68 ± 8.15%	–	–	–
CC(C)=CCC/C(C)=C/CC/C(C)=C/CSC[C@H](NC(=O)CCC(F)(F)F)C(=O)NN [Compound F]	–	–	–	erythema inhibition	edema inhibition	–	MPO (myeloperoxidase) inhibition	–	–	11.04 ± 7.28 — %	7.86 ± 0.98 — %	21.33 ± 12.68 — %
